The test system of the experiment is P388 leukemia ip, CD2F1 mice, survival T/C. Description: NCI In Vivo Anticancer Drug Screen. Data for tumor model P388 Leukemia (intraperitoneal) in CD2F1 (CDF1) mice. Particulars: endpoint: median survival time, higher = longer survival. The method in brief: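 Mice carrying the transplanted tumor received test compound or vehicle. Survival was recorded in each group, and the value is the treated-group measurement divided by that of the vehicle-treated control group.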

Setting [1] is: dose: 50.0 mg/kg/injection, schedule: Q01DX009 (ip), vehicle: Klucel (hydroxypropylcellulose) (HPC).
Where [2] appears, read: dose: 100.0 mg/kg/injection, schedule: Q01DX009 (ip), vehicle: Klucel (hydroxypropylcellulose) (HPC).
The mark [3] stands for this setting: dose: 12.5 mg/kg/injection, schedule: Q01DX005 (ip), vehicle: Klucel (hydroxypropylcellulose) (HPC).
The mark [4] stands for this setting: dose: 25.0 mg/kg/injection, schedule: Q01DX005 (ip), vehicle: Klucel (hydroxypropylcellulose) (HPC).
Setting [5] is: dose: 50.0 mg/kg/injection, schedule: Q01DX005 (ip), vehicle: saline with Tween-80.
[6] abbreviates: dose: 100.0 mg/kg/injection, schedule: Q01DX005 (ip), vehicle: saline with Tween-80.
The mark [7] stands for this setting: dose: 200.0 mg/kg/injection, schedule: Q01DX005 (ip), vehicle: saline with Tween-80.
Where [8] appears, read: dose: 50.0 mg/kg/injection, schedule: Q01DX005 (ip), vehicle: Klucel (hydroxypropylcellulose) (HPC).
Where [9] appears, read: dose: 100.0 mg/kg/injection, schedule: Q01DX005 (ip), vehicle: Klucel (hydroxypropylcellulose) (HPC).
[10] abbreviates: dose: 200.0 mg/kg/injection, schedule: Q01DX005 (ip), vehicle: Klucel (hydroxypropylcellulose) (HPC).
The mark [11] stands for this setting: dose: 25.0 mg/kg/injection, schedule: Q01DX009 (ip), vehicle: Klucel (hydroxypropylcellulose) (HPC).
Where [12] appears, read: dose: 60.0 mg/kg/injection, schedule: Q01DX005 (ip), vehicle: Klucel (hydroxypropylcellulose) (HPC).
Where [13] appears, read: dose: 120.0 mg/kg/injection, schedule: Q01DX005 (ip), vehicle: Klucel (hydroxypropylcellulose) (HPC).

Molecules are shown by their SMILES. “And” between values parts separate entries of the source, which are not always exact repeats. Equal values may be shown once. Toxic doses and inconclusive results are not listed.

From PubChem BioAssay AID330 (DTP/NCI, 2004) come the findings set out here.

With `O=C(CSc1ccccc1)c1ccccc1`, the T/C reads like this: (dose: 10.0 mg/kg/injection, schedule: Q01DX005 (ip), vehicle: Klucel (hydroxypropylcellulose) (HPC)) 101 % of control; (dose: 20.0 mg/kg/injection, schedule: Q01DX005 (ip), vehicle: Klucel (hydroxypropylcellulose) (HPC)) 102 % of control; (dose: 40.0 mg/kg/injection, schedule: Q01DX005 (ip), vehicle: Klucel (hydroxypropylcellulose) (HPC)) 101 % of control.
As to `COc1ccc([C@@H]2c3cc4c(cc3C[C@H]3COC(=O)[C@@H]32)OCO4)cc1OC`, the T/C reads like this: (dose: 25.0 mg/kg/injection, schedule: Q04DX002 (ip), vehicle: Klucel (hydroxypropylcellulose) (HPC)) 108 % of control; (dose: 100.0 mg/kg/injection, schedule: Q04DX002 (ip), vehicle: Klucel (hydroxypropylcellulose) (HPC)) 124 % of control.
In the case of `COc1cc(OC)c(-c2cc(C(=O)O)c3cc4ccccc4cc3n2)c(OC)c1`, the T/C is 89 % of control under setting [1]; 99 % of control under setting [2]; 97 % of control (dose: 200.0 mg/kg/injection, schedule: Q01DX009 (ip), vehicle: Klucel (hydroxypropylcellulose) (HPC)).
In the case of `O=C(O)c1ccc(Oc2nc3ccccc3s2)cc1`, the T/C is 91 % of control (dose: 50.0 mg/kg/injection, schedule: Q04DX003 (ip), vehicle: saline with Tween-80) and 91 % of control (dose: 100.0 mg/kg/injection, schedule: Q04DX003 (ip), vehicle: saline with Tween-80).
Regarding `C[CH2][Sn]([CH2]C)[O][Sn]([Cl])([CH2]C)[CH2]C`, the T/C runs as follows: (dose: 3.12 mg/kg/injection, schedule: Q01DX005 (ip), vehicle: Klucel (hydroxypropylcellulose) (HPC)) 116 % of control; (dose: 6.25 mg/kg/injection, schedule: Q01DX005 (ip), vehicle: Klucel (hydroxypropylcellulose) (HPC)) 118 % of control and 121 % of control; under setting [3], 104 % of control and 121 % of control; under setting [4], 120 % of control.
`O=C1CNC(=O)C(O)N1` (stereo unspecified): the T/C under setting [5] is 93 % of control, the T/C under setting [6] is 100 % of control and the T/C under setting [7] is 97 % of control.
`COC(=O)C1C(C(=O)OC)C2N(c3ccccc3)C=NN2C1C(=O)c1ccccc1` (stereo unspecified): the T/C is, setting by setting: under setting [5], 96 % of control; under setting [6], 103 % of control; under setting [7], 93 % of control.
With `[N-]=[N+]=Nc1nn2cnnc2c2[nH]c3ccccc3c12`, the T/C by setting is: under setting [3], 104 % of control; under setting [4], 108 % of control; under setting [8], 100 % of control and 101 % of control; under setting [9], 96 % of control; under setting [10], 99 % of control.
For `COc1cccc2c1C(=O)c1c(O)c3c(c(O)c1C2=O)C[C@@](O)(C(=O)CO)C[C@@H]3OC1CC(NCc2ccccc2)C(O)C(C)O1` (stereo partly specified), the T/C reads like this: (dose: 0.39 mg/kg/injection, schedule: Q01DX009 (ip), vehicle: water) 150 % of control; (dose: 0.78 mg/kg/injection, schedule: Q01DX009 (ip), vehicle: water) 151 % of control; (dose: 1.56 mg/kg/injection, schedule: Q01DX009 (ip), vehicle: water) 153 % of control and 158 % of control; (dose: 3.13 mg/kg/injection, schedule: Q01DX009 (ip), vehicle: water) 175 % of control and 194 % of control; (dose: 3.89 mg/kg/injection, schedule: Q04DX003 (ip), vehicle: water) 163 % of control; (dose: 6.25 mg/kg/injection, schedule: Q01DX009 (ip), vehicle: water) 107 % of control and 224 % of control. In addition, the T/C runs as follows: (dose: 6.48 mg/kg/injection, schedule: Q04DX003 (ip), vehicle: water) 175 % of control; (dose: 10.8 mg/kg/injection, schedule: Q04DX003 (ip), vehicle: water) 201 % of control; (dose: 18.0 mg/kg/injection, schedule: Q04DX003 (ip), vehicle: water) 105 % of control; (dose: 30.0 mg/kg/injection, schedule: Q04DX003 (ip), vehicle: water) 94 % of control.
`CCN(C=Nc1ccc(Cl)cc1C)CC`: the T/C is, setting by setting: under setting [1], 105 % of control; under setting [2], 117 % of control.
Take `CCOCCOC(=O)c1nn(-c2ccc(Cl)cc2)c2c1C(=O)c1ccccc1C2=O`: the T/C was 94 % of control under setting [8], 100 % of control under setting [9] and 101 % of control under setting [10].
Take `ClC1(Cl)C(=C=C2C3CC4CC(C3)CC2C4)C12C1CC3CC(C1)CC2C3` (stereo unspecified): the T/C was 100 % of control under setting [11]; 101 % of control (dose: 50.0 mg/kg/injection, schedule: Q01DX008 (ip), vehicle: Klucel (hydroxypropylcellulose) (HPC)); 101 % of control (dose: 100.0 mg/kg/injection, schedule: Q01DX008 (ip), vehicle: Klucel (hydroxypropylcellulose) (HPC)); 94 % of control under setting [2]; 87 % of control (dose: 200.0 mg/kg/injection, schedule: Q01DX008 (ip), vehicle: Klucel (hydroxypropylcellulose) (HPC)).
As for `O=c1sc2ccccc2n2cccc12`, the T/C by setting is: (dose: 60.0 mg/kg/injection, schedule: Q01DX005 (ip), vehicle: saline with Tween-80) 92 % of control; (dose: 120.0 mg/kg/injection, schedule: Q01DX005 (ip), vehicle: saline with Tween-80) 94 % of control; (dose: 240.0 mg/kg/injection, schedule: Q01DX005 (ip), vehicle: saline with Tween-80) 92 % of control.
For the compound `CSc1nc(=O)c(=O)nc(Nc2ccccc2)n1-c1ccccc1`, the T/C reads like this: (dose: 50.0 mg/kg/injection, schedule: Q01DX009 (ip), vehicle: saline with Tween-80) 86 % of control; (dose: 200.0 mg/kg/injection, schedule: Q01DX009 (ip), vehicle: saline with Tween-80) 87 % of control.
Consider `C1CC2CC1CC2CNCC1CC2CCC1C2` (stereo unspecified), for which the T/C under setting [3] is 103 % of control; the T/C under setting [4] was 103 % of control; the T/C under setting [8] is 98 % of control and 101 % of control.
Turning to `Cc1ccc(N=C2C(=O)Nc3ccccc32)cc1`, the T/C was 108 % of control (dose: 50.0 mg/kg/injection, schedule: Q04DX002 (ip), vehicle: saline with Tween-80); 105 % of control (dose: 100.0 mg/kg/injection, schedule: Q04DX002 (ip), vehicle: saline with Tween-80); 104 % of control (dose: 200.0 mg/kg/injection, schedule: Q04DX002 (ip), vehicle: saline with Tween-80).
In the case of `c1ccc2c(SCCSc3c4ccccc4nc4ccccc34)c3ccccc3nc2c1`, the T/C runs as follows: under setting [12], 90 % of control; under setting [13], 96 % of control.
`CC1=NC(C#N)=C(C#N)N=C(C)C1`: the T/C by setting is: (dose: 12.5 mg/kg/injection, schedule: Q01DX009 (ip), vehicle: Klucel (hydroxypropylcellulose) (HPC)) 93 % of control; under setting [11], 94 % of control; under setting [1], 93 % of control.
For `CCOC(=O)CCC(=O)Oc1ccc2c(c1OC(=O)CCC(=O)OCC)C(=O)c1ccccc1C2=O`, the T/C by setting is: under setting [12], 97 % of control; under setting [13], 97 % of control; (dose: 240.0 mg/kg/injection, schedule: Q01DX005 (ip), vehicle: Klucel (hydroxypropylcellulose) (HPC)) 95 % of control.
In the case of `CNNS(=O)(=O)CC(O)C(Cl)(Cl)Cl` (stereo unspecified), the T/C is, setting by setting: (dose: 50.0 mg/kg/injection, schedule: Q01DX009 (ip), vehicle: saline) 106 % of control; (dose: 100.0 mg/kg/injection, schedule: Q01DX009 (ip), vehicle: saline) 101 % of control.
